Biological target: T1, sGC α1/β1 heterodimer stably expressed in CHO-K1 cell line (CHO-K1/sGC) (Homo sapiens, UniProt Q02108+Q02153)
T1 construct: expressed in transfected cells
T1 sequence (Q02108 1-690): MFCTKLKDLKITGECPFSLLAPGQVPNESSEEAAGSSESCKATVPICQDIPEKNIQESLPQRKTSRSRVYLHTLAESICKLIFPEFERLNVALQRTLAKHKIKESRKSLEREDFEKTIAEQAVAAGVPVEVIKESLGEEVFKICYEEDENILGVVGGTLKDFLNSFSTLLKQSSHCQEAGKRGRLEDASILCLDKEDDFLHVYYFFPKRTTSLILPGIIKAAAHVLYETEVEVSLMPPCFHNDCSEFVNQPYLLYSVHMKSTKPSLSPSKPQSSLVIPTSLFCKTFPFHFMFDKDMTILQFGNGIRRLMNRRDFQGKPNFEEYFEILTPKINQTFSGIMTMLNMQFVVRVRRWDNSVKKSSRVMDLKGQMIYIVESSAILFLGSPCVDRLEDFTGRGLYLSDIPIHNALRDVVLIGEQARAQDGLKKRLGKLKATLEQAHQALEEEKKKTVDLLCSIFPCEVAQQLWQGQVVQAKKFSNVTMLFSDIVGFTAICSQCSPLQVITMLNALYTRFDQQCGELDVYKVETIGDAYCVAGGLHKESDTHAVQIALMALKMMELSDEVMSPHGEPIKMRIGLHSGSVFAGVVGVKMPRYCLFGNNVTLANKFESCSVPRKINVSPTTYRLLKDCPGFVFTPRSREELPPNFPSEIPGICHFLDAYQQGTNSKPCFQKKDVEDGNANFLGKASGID
T1 sequence (Q02153 1-619): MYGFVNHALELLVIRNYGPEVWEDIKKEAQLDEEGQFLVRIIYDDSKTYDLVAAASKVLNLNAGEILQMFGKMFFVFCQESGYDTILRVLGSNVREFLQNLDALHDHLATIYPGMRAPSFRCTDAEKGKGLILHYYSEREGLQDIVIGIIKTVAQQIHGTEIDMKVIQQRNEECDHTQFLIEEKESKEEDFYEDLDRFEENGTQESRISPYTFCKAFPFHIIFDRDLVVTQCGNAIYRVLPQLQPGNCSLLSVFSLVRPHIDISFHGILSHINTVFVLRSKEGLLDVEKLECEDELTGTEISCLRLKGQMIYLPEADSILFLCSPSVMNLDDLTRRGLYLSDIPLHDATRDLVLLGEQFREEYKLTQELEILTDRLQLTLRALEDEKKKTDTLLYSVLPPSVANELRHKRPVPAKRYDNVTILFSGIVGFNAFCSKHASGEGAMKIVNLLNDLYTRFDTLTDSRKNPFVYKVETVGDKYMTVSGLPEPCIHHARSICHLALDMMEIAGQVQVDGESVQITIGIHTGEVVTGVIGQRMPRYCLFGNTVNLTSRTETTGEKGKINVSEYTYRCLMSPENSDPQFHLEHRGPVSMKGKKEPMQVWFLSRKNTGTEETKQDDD
Assay: Cell-based sGC Functional Assay (CASA Assay), cGMP generation
Settings: CHO-K1/sGC cells, 1 hr at 37° C., cGMP by HTRF, 4P fit; presence or absence of 1 μM DETA-NO not given; read-out: IP (nM) (inflection point)
Outline: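 CHO-K1 cells stably expressing human sGC α1/β1 (4×10^5/mL, 0.5 mM IBMX) were treated with compounds (2.5% DMSO final) ± 1 μM DETA-NO for 1 hr at 37° C. Intracellular cGMP measured by HTRF. Activity expressed as % of Compound A maximal cGMP; IP and maximum fold induction from 4P fit.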

Structure (SMILES) | EC50
Nc1nc(-c2cn3ncnc3c(CCC(F)(F)C(F)(F)F)n2)nc2c1C(c1ccccn1)(C1CC1)C(=O)N2 (centres unmarked) [Example 114A, 4-amino-5-cyclopropyl-2-(8-(3,3,4,4,4-pentafluorobutyl)-[1,2,4]triazolo[1,5-a]pyrazin-6-yl)-5-(pyridin-2-yl)-5,7-dihydro-6H-pyrrolo[2,3-d]pyrimidin-6-one] | 144 nM
Nc1nc(-c2cn3ncnc3c(CCCC(F)(F)F)n2)nc2c1C(c1ccccn1)(C1CC1)C(=O)N2 (centres unmarked) [Example 115A, 4-amino-5-cyclopropyl-5-(pyridin-2-yl)-2-(8-(4,4,4-trifluorobutyl)-[1,2,4]triazolo[1,5-a]pyrazin-6-yl)-5H-pyrrolo[2,3-d]pyrimidin-6(7H)-one] | 233 nM
C[C@@]1(c2ccc(F)cc2)C(=O)Nc2nc(-c3cn4ncnc4c(CCC(F)(F)C(F)(F)F)n3)nc(O)c21 [Example 119A, (S)-5-(4-fluorophenyl)-4-hydroxy-5-methyl-2-(8-(3,3,4,4,4-pentafluorobutyl)-[1,2,4]triazolo[1,5-a]pyrazin-6-yl)-5,7-dihydro-6H-pyrrolo[2,3-d]pyrimidin-6-one] | 134 nM
CC1(c2ccc(Cl)cn2)C(=O)Nc2nc(-c3cn4ncnc4c(CCC(F)(F)C(F)(F)F)n3)nc(O)c21 (centres unmarked) [Example 120A, 5-(5-chloropyridin-2-yl)-4-hydroxy-5-methyl-2-(8-(3,3,4,4,4-pentafluorobutyl)-[1,2,4]triazolo[1,5-a]pyrazin-6-yl)-5H-pyrrolo[2,3-d]pyrimidin-6(7H)-one] | 155 nM
CC1(c2ccc(F)cn2)C(=O)Nc2nc(-c3cn4ncnc4c(CCC(F)(F)C(F)(F)F)n3)nc(O)c21 (centres unmarked) [Example 122B, 5-(5-fluoropyridin-2-yl)-4-hydroxy-5-methyl-2-(8-(3,3,4,4,4-pentafluorobutyl)-[1,2,4]triazolo[1,5-a]pyrazin-6-yl)-5H-pyrrolo[2,3-d]pyrimidin-6(7H)-one] | 141 nM

More lines, in order of falling EC50, values ahead:

EC50 | Structure (SMILES)
763 nM | C[C@@]1(c2ccc(F)cc2)C(=O)Nc2nc(-c3cn4ncnc4c(Cc4cccc(O)c4)n3)nc(N)c21 [Example 113B, (S)-4-amino-5-(4-fluorophenyl)-2-(8-(3-hydroxybenzyl)-[1,2,4]triazolo[1,5-a]pyrazin-6-yl)-5-methyl-5H-pyrrolo[2,3-d]pyrimidin-6(7H)-one]
130 nM | CC1(c2ccc(Cl)c(F)c2)C(=O)Nc2nc(-c3cn4ncnc4c(CCC(F)(F)C(F)(F)F)n3)nc(O)c21 (centres unmarked) [Example 121B, 5-(4-chloro-3-fluorophenyl)-4-hydroxy-5-methyl-2-(8-(3,3,4,4,4-pentafluorobutyl)-[1,2,4]triazolo[1,5-a]pyrazin-6-yl)-5H-pyrrolo[2,3-d]pyrimidin-6(7H)-one]
84.1 nM | N#Cc1ccc(C2(C3CC3)C(=O)Nc3nc(-c4cn5ncnc5c(CCC(F)(F)C(F)(F)F)n4)nc(N)c32)nc1 (centres unmarked) [Example 118A, 6-(4-Amino-5-cyclopropyl-6-oxo-2-(8-(3,3,4,4,4-pentafluorobutyl)-[1,2,4]triazolo[1,5-a]pyrazin-6-yl)-6,7-dihydro-5H-pyrrolo[2,3-d]pyrimidin-5-yl)nicotinonitrile]
49.2 nM | N#Cc1ccc(C2(C3CC3)C(=O)Nc3nc(-c4cn5ncnc5c(CCCC(F)(F)F)n4)nc(N)c32)nc1 (centres unmarked) [Example 117A, 6-(4-Amino-5-cyclopropyl-6-oxo-2-(8-(4,4,4-trifluorobutyl)-[1,2,4]triazolo[1,5-a]pyrazin-6-yl)-6,7-dihydro-5H-pyrrolo[2,3-d]pyrimidin-5-yl)nicotinonitrile]
19.7 nM | CCCCc1nc(-c2nc(N)c3c(n2)NC(=O)C3(c2ccccn2)C2CC2)cn2ncnc12 (centres unmarked) [Example 116A, 4-amino-2-(8-butyl-[1,2,4]triazolo[1,5-a]pyrazin-6-yl)-5-cyclopropyl-5-(pyridin-2-yl)-5H-pyrrolo[2,3-d]pyrimidin-6(7H)-one]

Same assay, conditions: CHO-K1/sGC cells, 1 hr at 37° C., cGMP by HTRF; presence or absence of 1 μM DETA-NO not given; read-out: % Act. (percent activation relative to maximum cGMP production of Compound A = 100%)

Emax | Structure (SMILES)
100% | CC1(c2ccc(F)cn2)C(=O)Nc2nc(-c3cn4ncnc4c(CCC(F)(F)C(F)(F)F)n3)nc(O)c21 (centres unmarked) [Example 122B, 5-(5-fluoropyridin-2-yl)-4-hydroxy-5-methyl-2-(8-(3,3,4,4,4-pentafluorobutyl)-[1,2,4]triazolo[1,5-a]pyrazin-6-yl)-5H-pyrrolo[2,3-d]pyrimidin-6(7H)-one]
